pEC50: −log10 of the molar value.
Legend:
Assay type in all cases: cell-based
CFTR ΔF508 mutant [1] = target: T1, CFTR ΔF508 mutant (Homo sapiens, UniProt P13569, DEL508-508); experiment: YFP-halide influx assay for the CFTR-ΔF508 mutation (384 well, FDSS/μCell); details: CFBE41o- cells, CFTR-ΔF508, 1×D-PBS, fluorescence after 36 seconds
T1 construct: expressed in transfected cells; host or cells: CFBE41o- (adenoviral transduction)
How it was run: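 Potentiator read-out as 1−F/F0, F taken 36 s after iodide addition, EC50 fitted against compound concentration. Cells: CFBE41o- expressing ΔF508 CFTR plus halide-sensitive YFP via adenovirus, rescued by 27 °C for 24 h or 24 h modulator at 37 °C.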

CFTR ΔF508 mutant [2] = target: T1, CFTR ΔF508 mutant; experiment: YFP-halide influx assay for the CFTR-ΔF508 mutation, gluconate buffer; details: CFBE41o- cells, forskolin 10.67 μM
How it was run: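 CFBE41o- cells adenovirally transduced with CFTR ΔF508 and YFP H148Q/I152L, then held 24 h at 27 °C or treated with CFTR modulator 24 h at 37 °C. I− quenching recorded for 7 s after injection; activity as 1-F/F0, EC50 from concentration plot.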

CFTR G551D mutant = target: T2, CFTR G551D mutant (Homo sapiens, UniProt P13569, G551D); experiment: YFP-halide influx assay for the CFTR-G551D mutation; details: HEK293 cells, forskolin 10.67 μM
T2 construct: expressed in transfected cells; host or cells: HEK293 (reverse transfection with plasmid)
How it was run: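 HEK293 cells reverse-transfected with CFTR G551D and YFP H148Q/I152L/F47L halide sensor, expressed 24 h at 37 °C. Iodide-induced fluorescence quench recorded 7 s after I− injection; response = 1−F/F0, with EC50 from plot against compound concentration.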

CFTR ΔF508 mutant [3] = target: T1, CFTR ΔF508 mutant; experiment: YFP-halide influx assay for the CFTR-ΔF508 mutation, PBS buffer (96 well); details: CFBE41o- cells, forskolin 10.67 μM
Excerpt: The YFP halide influx assay measures the functionality of the cystic fibrosis Transmembrane Conductance regulator (CFTR) channels in the cystic fibrosis bronchial epithelium cell line CFBE41o-. The assay is used to evaluate the capacity of compounds to increase the open probability of existing CFTR channels in the membrane. It makes use of the observation that the yellow fluorescent protein (YFP) variant YFP H148Q, I152L has its fluorescence substantially quenched by halide ions like Cl^− and I^−. (Galietta, Haggie, & Verkman, 2001) (Nagai, et al., 2002)
For this purpose, CFBE41o-cells are seeded in 96 well plates (6000 CFBE cells/well). One day after seeding, the CFBE cells are transduced with adenoviral vectors that direct the expression of the CFTR ΔF508 mutant and of the YFP reporter. Cells are incubated at 27° C., 5% CO2 for 24 hours so as to allow for the proper folding and migration to the membrane of the CFTR channel or treated with a CFTR modulator during 24 hours at 37° C.
The I^− induced quenching of fluorescence is recorded immediately after injection of I^− for 7 seconds. The capacity of a compound to increase the channel opening is directly correlated with the decrease in fluorescence, and is expressed as (1-(fluorescence after 7 seconds (F)/fluorescence before injection (F0))) and an EC50 can be derived from a (1-F/F0) vs compound concentration plot.

T1 sequence (P13569 with tags, fused parts or gaps DEL508-508): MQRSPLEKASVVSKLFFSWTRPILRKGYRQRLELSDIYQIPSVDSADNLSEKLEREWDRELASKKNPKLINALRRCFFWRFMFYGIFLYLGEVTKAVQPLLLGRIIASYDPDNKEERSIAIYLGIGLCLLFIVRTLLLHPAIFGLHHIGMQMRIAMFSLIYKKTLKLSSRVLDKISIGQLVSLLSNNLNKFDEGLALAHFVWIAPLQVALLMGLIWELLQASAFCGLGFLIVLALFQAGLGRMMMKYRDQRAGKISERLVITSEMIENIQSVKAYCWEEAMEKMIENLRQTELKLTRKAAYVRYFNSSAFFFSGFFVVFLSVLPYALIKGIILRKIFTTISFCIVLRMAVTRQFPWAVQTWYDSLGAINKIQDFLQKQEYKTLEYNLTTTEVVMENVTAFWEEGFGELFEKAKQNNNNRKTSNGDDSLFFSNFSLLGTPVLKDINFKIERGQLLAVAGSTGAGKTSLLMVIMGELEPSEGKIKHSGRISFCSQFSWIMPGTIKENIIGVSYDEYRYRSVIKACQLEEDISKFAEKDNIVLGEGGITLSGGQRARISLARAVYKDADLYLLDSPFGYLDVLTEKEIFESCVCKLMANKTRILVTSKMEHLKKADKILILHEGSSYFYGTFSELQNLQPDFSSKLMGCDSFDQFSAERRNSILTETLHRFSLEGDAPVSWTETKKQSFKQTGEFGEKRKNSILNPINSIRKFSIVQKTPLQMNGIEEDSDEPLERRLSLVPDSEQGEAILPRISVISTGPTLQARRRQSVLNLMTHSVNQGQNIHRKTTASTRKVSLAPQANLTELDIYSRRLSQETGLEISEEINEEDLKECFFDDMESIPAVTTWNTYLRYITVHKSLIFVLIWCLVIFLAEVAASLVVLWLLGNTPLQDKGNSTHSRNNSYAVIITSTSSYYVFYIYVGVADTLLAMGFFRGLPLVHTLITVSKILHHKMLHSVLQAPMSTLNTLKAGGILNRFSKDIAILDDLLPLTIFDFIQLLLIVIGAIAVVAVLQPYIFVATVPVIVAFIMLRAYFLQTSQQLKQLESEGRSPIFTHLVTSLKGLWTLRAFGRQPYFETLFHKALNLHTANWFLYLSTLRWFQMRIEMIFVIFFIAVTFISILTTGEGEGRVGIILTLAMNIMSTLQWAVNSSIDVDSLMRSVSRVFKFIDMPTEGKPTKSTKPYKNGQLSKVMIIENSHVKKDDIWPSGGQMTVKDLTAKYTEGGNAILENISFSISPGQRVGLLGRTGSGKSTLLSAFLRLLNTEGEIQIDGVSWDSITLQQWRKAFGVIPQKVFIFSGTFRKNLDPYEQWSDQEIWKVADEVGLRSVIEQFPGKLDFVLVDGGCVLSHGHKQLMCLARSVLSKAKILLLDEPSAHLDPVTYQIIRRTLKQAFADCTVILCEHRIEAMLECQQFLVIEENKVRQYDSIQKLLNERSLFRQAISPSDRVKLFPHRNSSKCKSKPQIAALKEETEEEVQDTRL
T2 sequence (P13569 whole entry G551D): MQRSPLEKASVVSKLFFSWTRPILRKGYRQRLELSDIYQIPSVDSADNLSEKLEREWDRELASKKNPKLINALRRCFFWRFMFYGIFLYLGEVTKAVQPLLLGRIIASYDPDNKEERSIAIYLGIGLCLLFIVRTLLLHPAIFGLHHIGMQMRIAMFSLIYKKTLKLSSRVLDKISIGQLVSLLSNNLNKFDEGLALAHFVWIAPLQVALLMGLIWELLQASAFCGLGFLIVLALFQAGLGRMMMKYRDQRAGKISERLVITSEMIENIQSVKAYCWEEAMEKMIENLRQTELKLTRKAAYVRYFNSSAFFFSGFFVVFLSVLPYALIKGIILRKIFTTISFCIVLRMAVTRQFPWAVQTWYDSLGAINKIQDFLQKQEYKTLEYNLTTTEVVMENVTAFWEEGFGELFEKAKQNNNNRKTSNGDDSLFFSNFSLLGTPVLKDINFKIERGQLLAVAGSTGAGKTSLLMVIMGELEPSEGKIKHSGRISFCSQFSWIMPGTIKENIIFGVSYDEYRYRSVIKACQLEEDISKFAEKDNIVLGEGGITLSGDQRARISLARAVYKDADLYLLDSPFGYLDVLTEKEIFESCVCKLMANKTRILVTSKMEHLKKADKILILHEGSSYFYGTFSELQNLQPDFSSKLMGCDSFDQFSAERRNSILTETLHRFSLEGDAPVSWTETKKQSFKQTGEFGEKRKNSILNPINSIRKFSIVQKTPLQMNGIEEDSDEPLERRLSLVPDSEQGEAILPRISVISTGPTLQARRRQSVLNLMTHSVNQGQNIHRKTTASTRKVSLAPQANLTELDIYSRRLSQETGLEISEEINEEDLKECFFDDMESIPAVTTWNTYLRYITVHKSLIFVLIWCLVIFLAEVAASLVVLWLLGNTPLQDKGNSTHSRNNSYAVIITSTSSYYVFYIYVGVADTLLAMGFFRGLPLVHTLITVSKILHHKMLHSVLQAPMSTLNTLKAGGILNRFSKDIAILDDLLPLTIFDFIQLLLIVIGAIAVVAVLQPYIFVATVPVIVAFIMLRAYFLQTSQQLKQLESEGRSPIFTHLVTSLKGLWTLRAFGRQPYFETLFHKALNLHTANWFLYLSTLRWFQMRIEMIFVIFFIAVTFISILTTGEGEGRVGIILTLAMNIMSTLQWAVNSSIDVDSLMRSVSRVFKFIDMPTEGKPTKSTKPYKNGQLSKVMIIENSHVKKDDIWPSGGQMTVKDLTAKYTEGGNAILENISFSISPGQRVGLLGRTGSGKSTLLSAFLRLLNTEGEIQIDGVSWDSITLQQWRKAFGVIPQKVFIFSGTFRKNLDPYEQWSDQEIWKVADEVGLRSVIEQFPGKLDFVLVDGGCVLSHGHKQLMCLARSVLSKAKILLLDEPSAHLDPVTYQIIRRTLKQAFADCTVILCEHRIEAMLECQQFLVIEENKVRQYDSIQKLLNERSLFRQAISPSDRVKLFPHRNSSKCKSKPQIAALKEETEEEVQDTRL

Compound | pEC50 (CFTR ΔF508 mutant [1]) | pEC50 (CFTR ΔF508 mutant [2]) | pEC50 (CFTR G551D mutant) | pEC50 (CFTR ΔF508 mutant [3])
CCc1ccccc1S(=O)(=O)c1cc(C(N)=O)c(NC(=O)c2ccccc2F)s1 [Compound 121, 5-(2-ethylphenylsulfonyl)-2-(2-fluorobenzamido) thiophene-3-carboxamide] | 6.53 | 7.13 | – | –
NC(=O)c1cc(S(=O)(=O)N2CCC(F)(F)CC2)sc1NC(=O)C1(O)CC1 [Compound 139, 5-(4,4-difluoropiperidin-1-ylsulfonyl)-2-(1-hydroxycyclopropanecarboxamido) thiophene-3-carboxamide] | 7.26 | 6.94 | – | –
NC(=O)c1cc(S(=O)(=O)N2CCOCC2)sc1NC(=O)c1ccccc1O [Compound 143, 2-(2-Hydroxy-benzoylamino)-5-(morpholine-4-sulfonyl)-thiophene-3-carboxylic acid amide] | 7.57 | 7.53 | 6.64 | –
CC(C)N(C(C)C)S(=O)(=O)c1cc(C(N)=O)c(NC(=O)c2ccccc2F)s1 [Compound 154, 5-(N,N-diisopropylsulfamoyl)-2-(2-fluorobenzamido) thiophene-3-carboxamide] | 6.37 | 6.98 | – | –
COCCN(CC(F)(F)F)S(=O)(=O)c1cc(C(N)=O)c(NC(=O)c2ccccc2F)s1 [Compound 157, 2-(2-fluorobenzamido)-5-(N-(2-methoxyethyl)-N-(2,2,2-trifluoroethy)sulfamoyl) thiophene-3-carboxamide] | 7.22 | 7.06 | 6.62 | –
COc1ccc(OC)c(S(=O)(=O)c2cc(C(N)=O)c(NC(=O)c3ccccc3F)s2)c1 [Compound 182, 5-(2,5-dimethoxyphenylsulfonyl)-2-(2-fluorobenzamido)thiophene-3-carboxamide] | 6.36 | 7.01 | – | –
NC(=O)c1cc(S(=O)(=O)N2CCC(F)(F)CC2)sc1NC(=O)c1cc(C(F)(F)F)[nH]n1 [Compound 189, N-(3-carbmoyl-5-(4,4-difluoropiperidin-1-ylsulfonyl)thiophen-2-yl)-5-(trifluoromethyl)-1H-pyrazole-3-carboxamide] | – | 6.91 | 6.65 | –
NC(=O)c1cc(S(=O)(=O)N2CCC(F)(F)CC2)sc1NC(=O)c1ccccc1O [Compound 190, 5-(4,4-difluoropiperidin-1-ylsulfonyl)-2-(2-hydroxybenzamido)thiophene-3-carboxamide] | 7.08 | 7.13 | 6.56 | –
CC(C)S(=O)(=O)c1cc(C(N)=O)c(NC(=O)c2ccccc2O)s1 [Compound 197, 2-(2-hydroxybenzaido)-5-(isopropylsulfonyl) thiophene-3-carboxamide] | 7.61 | 7.04 | 6.80 | –
NC(=O)c1cc(S(=O)(=O)N2CCOCC2)sc1NC(=O)c1ccc(F)cc1O [Compound 198, 2-(4-fluoro-2-hydroxybenzamido)-5-(morpholinosulfonyl)thiophene-3-carboxamide] | 7.69 | 7.01 | 6.87 | –
NC(=O)c1cc(S(=O)(=O)c2ccc(F)cc2)sc1NC(=O)c1cccnc1F [Compound 230, N-(3-carbamoyl-5-(4-fluorophenylsulfonyl)thiophen-2-yl)-2-fluoronicotinamide] | – | – | – | 6.01
CC1COCC(C)N1S(=O)(=O)c1cc(C(N)=O)c(NC(=O)C2(O)CC2)s1 (stereo not shown) [Compound 234, 5-(3,5-dimethylmorpholinosulfonyl)-2-(1-hydroxycyclopropanecarboxamido) thiophene-3-carboxamide] | – | – | – | 6.55

The next lines start with the values.

pEC50 (CFTR ΔF508 mutant [1]) | pEC50 (CFTR ΔF508 mutant [2]) | pEC50 (CFTR G551D mutant) | pEC50 (CFTR ΔF508 mutant [3]) | Compound
6.73 | 7.11 | – | – | CCc1cc(C(=O)Nc2sc(S(=O)(=O)c3ccc(F)c(F)c3)cc2C(N)=O)n[nH]1 [Compound 119, N-(3-carbamoyl-5-(3,4-difluorophenylsulfonyl)thiophen-2-yl)-5-ethyl-1H-pyrazole-3-carboxamide]
7.12 | 7.11 | – | – | COC1CCN(S(=O)(=O)c2cc(C(N)=O)c(NC(=O)c3ccccc3F)s2)CC1 [Compound 123, 2-(2-fluorobenzamido)-5-(4-methoxypiperidin-1-ylsulfonyl)thiophene-3-carboxamide]
7.99 | 7.53 | 7.17 | – | NC(=O)c1cc(S(=O)(=O)N2CCC(F)(F)CC2)sc1NC(=O)c1cc[nH]n1 [Compound 140, N-(3-carbamoyl-5-(4,4-difluoropiperidin-1-ylsulfonyl)thiophen-2-yl)-1H-pyrazole-3-carboxamide]
7.01 | 7.53 | 6.59 | – | CCc1cc(C(=O)Nc2sc(S(=O)(=O)N3CCC(F)(F)CC3)cc2C(N)=O)n[nH]1 [Compound 141, N-(3-carbamoyl-5-(4,4-difluoropiperidin-1-ylsulfonyl)thiophen-2-yl)-5-ethyl-1H-pyrazole-3-carboxamide]
6.53 | 7.15 | 6.27 | – | CC(C)(C)c1cc(C(=O)Nc2sc(S(=O)(=O)N3CCC(F)(F)CC3)cc2C(N)=O)n[nH]1 [Compound 142, 5-tert-butyl-N-(3-carbamoyl-5-(4,4-difluoropiperidin-1-ylsulfonyl)thiophen-2-yl)-1H-pyrazole-3-carboxamide]
7.15 | 7.71 | 6.67 | – | CN(Cc1ccc(F)cc1)S(=O)(=O)c1cc(C(N)=O)c(NC(=O)c2cc[nH]n2)s1 [Compound 145, 1H-Pyrazole-3-carboxylic acid {3-carbamoyl-5-[(4-fluoro-benzyl)-methyl-sulfamoyl]-thiophen-2-yl}-amide]
6.87 | 7.09 | – | – | CN(C1CC1)S(=O)(=O)c1cc(C(N)=O)c(NC(=O)c2ccccc2F)s1 [Compound 152, 5-(N-cyclopropyl-N-methylsulfamoyl)-2-(2-fluorobenzamido)thiophene-3-carboxamide]
7.34 | 7.34 | – | – | CC(C)N(C)S(=O)(=O)c1cc(C(N)=O)c(NC(=O)c2ccccc2F)s1 [Compound 153, 2-(2-fluorobenzamido)-5-(N-isopropyl-N-methylsulfamoyl) thiophene-3-carboxamide]
6.73 | 7.42 | – | – | Cc1ccc(CN(C)S(=O)(=O)c2cc(C(N)=O)c(NC(=O)c3cc[nH]n3)s2)cc1 [Compound 170, N-(3-carbamoyl-5-(N-methyl-N-(4-methylbenzyl)sulfamoyl)thiophen-2-yl)-1H-pyrazole-3-carboxamide]
7.38 | 7.81 | 6.86 | – | CN(Cc1ccc(F)cc1F)S(=O)(=O)c1cc(C(N)=O)c(NC(=O)c2cc[nH]n2)s1 [Compound 172, N-(3-carbamoyl-5-(N-(2,4-difluorobenzyl)-N-methylsulfamoyl)thiophen-2-yl)-1H-pyrazole-3-carboxamide]
7.80 | 7.68 | – | – | CN(c1ccc(F)cc1)S(=O)(=O)c1cc(C(N)=O)c(NC(=O)c2cc[nH]n2)s1 [Compound 173, 1H-Pyrazole-3-carboxylic acid {3-carbamoyl-5-[(4-fluoro-phenyl)-methyl-sulfamoyl]-thiophen-2-yl}-amide]
6.70 | 7.05 | 6.61 | – | NC(=O)c1cc(S(=O)(=O)N(Cc2ccc(F)cc2)C2CC2)sc1NC(=O)c1cc[nH]n1 [Compound 191, N-(3-carbamoyl-5-(N-cyclopropyl-N-(4-fluorobenzyl)sulfamoyl)thiophen-2-yl)-1H-pyrazole-3-carboxamide]
7.31 | 6.94 | 6.69 | – | CN(CC1CC1)S(=O)(=O)c1cc(C(N)=O)c(NC(=O)c2cc[nH]n2)s1 [Compound 193, N-(3-carbamoyl-5-(N-(cyclopropylmethyl)-N-methylsulfamoyl)thiophen-2-yl)-1H-pyrazole-3-carboxamide]
7.87 | 7.13 | 6.33 | – | CC(C)N(C)S(=O)(=O)c1cc(C(N)=O)c(NC(=O)c2cc[nH]n2)s1 [Compound 210, N-(3-carbamoyl-5-(N-isopropyl-N-methylsulfamoyl)thiophen-2-yl)-1H-pyrazole-3-carboxamide]
– | – | – | 5.51 | COCCC(=O)Nc1sc(S(=O)(=O)c2ccc(F)cc2)cc1C(N)=O [Compound 229, 5-(4-fluorophenylsulfonyl)-2-(3-methoxypropanamido) thiophene-3-carboxamide]

Reference: US9382254B2, “Compounds and pharmaceutical compositions thereof for the treatment of cystic fibrosis” (Galapagos NV, priority 2013, dated 2016)
